Experimental findings from US6869971B1, “UCS1025 derivatives” (Kyowa Hakko Kogyo Co., Ltd., priority 1999, dated 2005) are described below.

Converted amounts (≈) assume the structure as drawn.

Holding throughout (type): cell-based
Experiment [1] deals with human renal carcinoma cell line ACHN. Briefly: Growth inhibition action on human renal carcinoma cell line ACHN. The note with it: ACHN cells, 72 hours culture with compound, Cell proliferation kit II, read-out: IC50 (concentration inhibiting 50% of the cell growth). The method, then:
Cells of human renal carcinoma cell line ACHN adjusted to a density of 3×10^4 cells/ml with RPMI (Roswell Park Memorial Institute) medium comprising 10% fetal bovine serum and 2 mmol/l glutamine were dispensed in a volume of 50 μl into each well of a 96 well microtiter plate and cultured at 37° C. for 24 hours in a carbon dioxide incubator. Each of the test compounds serially diluted with the above medium was added to each well in a volume of 50 μl, following by culturing at 37° C. for 72 hours in a carbon dioxide incubator. After discarding the culture supernatant, each well was washed twice with 0.1 ml of phosphate buffered saline (PBS), and then 0.1 ml of the above medium was again added to each well. Cell proliferation kit II (Boehringer Mannheim) was used for the measurement of the number of cells in each well. After addition of a color-producing reagent and subsequent incubation at 37° C. for 3 hours in a carbon dioxide incubator, absorbance at 490 nm and 655 nm was measured using a microplate reader, and a value (differential absorbance) was calculated by subtracting the absorbance at 655 nm from the absorbance at 490 nm in each well. By comparing the differential absorbance obtained from untreated cells and that obtained from cells treated with a predetermined concentration of each test compound, the concentration of the test compound capable of inhibiting 50% of the cell growth was calculated and expressed as IC50.

The subject of experiment [2] is Bacillus subtilis ATCC 10707. In words: Antibacterial activity (MIC), agar dilution method. The following applies: ATCC10707, read-out: minimum inhibitory concentration (MIC), BS. The method, then: (§1) Antibacterial activities (minimum inhibitory concentration (MIC: mg/ml)) of Compounds (I) on various bacteria are shown in Table 2. The antibacterial activity was measured by an agar dilution method using a medium comprising 3 g/L Bacto-Tryptone (manufactured by Difco), 3 g/L meat extract, 1 g/L yeast extract, 1 g/L glucose and 16 g/L agar.

The subject of experiment [3] is Enteroccccus hirae ATCC 10541. Briefly: Antibacterial activity (MIC), agar dilution method. The note with it: read-out: minimum inhibitory concentration (MIC), ER. The method, then:
as §1
Background: In agar dilution, organisms are placed on agar that contains the substance at set levels.

With `C[C@H]1C=C[C@H]2CCCC[C@@H]2C1C(=O)C1Cc2cccn2C1=O` (stereo partly shown) [Compound 16], in experiment [1], the IC50 came out at 64 µM.

For `COC(=O)[C@@H]1CCN2C(=O)C(C(=O)C3[C@H]4CCCC[C@@H]4C=C[C@@H]3C)=C[C@]12O` (stereo partly shown) [Compound 1], the MIC in experiment [2] and in experiment [3] was 520 µg/mL (≈ 1.39 mM) in each case. Besides, the IC50 in experiment [1] is 4.4 µM.

Turning to `C[C@H]1C=C[C@H]2CCCC[C@@H]2C1C(=O)[C@@]1(Br)C(=O)N2CC[C@H]3C(=O)O[C@@H]1[C@]32O` (stereo partly shown) [Compound 32], the MIC in experiment [2] and in experiment [3] was 13000 µg/mL (≈ 29.7 mM) each time.

For `CCN(CC)C(=O)[C@@H]1CCN2C(=O)C(C(=O)C3[C@H]4CCCC[C@@H]4C=C[C@@H]3C)=C[C@]12O` (stereo partly shown) [Compound 6], the MIC was 1800 µg/mL (≈ 4.34 mM) in experiment [2] and 3600 µg/mL (≈ 8.68 mM) in experiment [3]. The IC50 in experiment [1] was found to be 5.6 µM.

Regarding `CCN(CC)C(=O)[C@@H]1CCN2C(=O)C3(C(=O)C4[C@H]5CCCC[C@@H]5C=C[C@@H]4C)O[C@@H]3[C@]12O` (stereo partly shown) [Compound 38], the MIC came to 16000 µg/mL (≈ 37.2 mM) in experiment [2] and 8100 µg/mL (≈ 18.8 mM) in experiment [3].

As to `CCS[C@@H]1[C@H](C(=O)C2[C@H]3CCCC[C@@H]3C=C[C@@H]2C)C(=O)N2CC[C@@H](C(=O)N(CC)CC)[C@@]12O` (stereo partly shown) [Compound 12], the IC50 in experiment [1] was 5.7 µM.

`CCCN(CCC)C(=O)[C@@H]1CCN2C(=O)C(C(=O)C3[C@H]4CCCC[C@@H]4C=C[C@@H]3C)=C[C@]12O` (stereo partly shown) [Compound 7]: the MIC came to 1300 µg/mL (≈ 2.94 mM) in experiment [2] and 5000 µg/mL (≈ 11.3 mM) in experiment [3].

As for `CCCCN(CCCC)C(=O)[C@@H]1CCN2C(=O)C(C(=O)C3[C@H]4CCCC[C@@H]4C=C[C@@H]3C)=C[C@]12O` (stereo partly shown) [Compound 8], the MIC in experiment [2] is 380 µg/mL (≈ 0.807 mM); in experiment [3], 1500 µg/mL (≈ 3.19 mM). For the same molecule, the IC50 in experiment [1] stood at 2.7 µM.

With `C=CCOC(=O)[C@@H]1CCN2C(=O)C3(C(=O)C4[C@H]5CCCC[C@@H]5C=C[C@@H]4C)O[C@@H]3[C@]12O` (stereo partly shown) [Compound 36], the MIC in experiment [2] and in experiment [3] was 48000 µg/mL (≈ 116 mM) each time.
